Structures are written as SMILES.

One may read the inhibition as how much of the control response was suppressed.

Holding throughout (type): cell-based
The subject of assay [1] is HT-29 colon cancer cell line. As to the kind of experiment: Cell viability assay (CellTiter Glo), HT-29. Particulars: Homo sapiens, 120 h; HT-29, 20 uM, day 5; read-out: % growth inhibition. The method, then:
(§1) Pancreatic cancer cell lines (MIA PaCa-2 and CAPAN-2) were purchased from ATCC. MIA PaCa-2 were grown in DMEM and CAPAN-2 in McCoy's 5A (Gibco). Colon cancer cell lines (SW480 and HT-29) were purchased from ATCC. SW480 were grown in Leibovitz's L-15 (ATCC) and HT-29 in McCoy's 5A (Gibco). Lung cancer cell lines (NCI 460 and NCI 1975) were purchased from ATCC and grown in RPMI 1640 (Gibco). PC-3 prostate cancer cell line was purchased from ATCC and grown in F-12K (ATCC). Bladder cancer cell line 5637 was purchased from ATCC and RT-112 was purchased from Sigma-Aldrich and was grown in RPMI 1640 (Gibco). […] IL1B and TNFA mRNA levels were measured by qPCR analysis as described previously (Fang K et al. Am J Pathol, 188(3):586-99, 2018).
(§2) 1.8×10^3 cells/well were plated in quadruplicates in 96-well plate and treated with exogenously added MJK analogues 6 hours after plating. […] Cell growth was assessed 1, 3, 5 or 7 days after plating using the CellTiter Glo Luminescence Cell Viability Assay (Promega) according to manufacturer's protocol. For the experiments where the effect of combinatorial treatment of MJK-004 analogues with chemotherapy was assessed, treatment of cells with gemcitabine (10 nM) or 5-fluouracil (2000 nM) was performed one day after MJK-004 treatment and the cells were further treated with exogenously added MJK analogues 2 days later. […]
In general terms: Cellular ATP, detected with luciferase, serves as a proxy for viable cell number.

Assay [2] concerns MIA PaCa-2 pancreatic cancer cell line. Put plainly: Cell viability assay (CellTiter Glo), MIA PaCa-2. Particulars: Homo sapiens, 120 h; MIA PaCa-2, 20 uM, day 5; read-out: % growth inhibition. The method, then: as §1, §2
For assay [3], the system named is SW480 colon cancer cell line. Put plainly: Cell viability assay (CellTiter Glo), SW480. Particulars: Homo sapiens, 120 h; SW480, 20 uM, day 5; read-out: % growth inhibition. The method, then: as §1, §2

Consider `Cn1c(/C=C/C(=O)NO)ccc1/C=C/C(=O)c1cccc(F)c1` [MJK001, (E)-3-(5-((E)-3-(3-Fluorophenyl)-3-oxoprop-1-en-1-yl)-1-methyl-1H-pyrrol-2-yl)-N-hydro-xyacrylamide], for which the inhibition at 20 µM in assay [1] came out at 19.7%; in assay [2] it was 0%; in assay [3] it was 58.4%.
